{"source": "patent US11883405B2", "about": "“Pharmaceutical composition comprising a combination of methotrexate and novobiocin, and the use of said composition in therapy” (Amplio Pharma AB, priority 2017, dated 2024)", "key": {"[1]": {"details": "rat, in vivo", "procedure": "(§9) In vivo study protocol—in accordance with local (Malmo, Sweden) animal ethic license number M388-12: Following acclimatization to the housing conditions for a minimum of 7 days after arrival, male Wistar (Hannover) rats (Taconic, Denmark), average weight 300 g; average age 8-10 weeks, are treated with test items (see table 1); 12-16 h prior to dosing all food except for an amount equivalent to a half day consumption is removed. The test items are administrated using a soft gavage tube (p.o.) or by injecting the test item in the tail vein (i.v). The volume given is 5 mL/kg (p.o.) or 1 mL/kg (i.v.). Before i.v administration rats are anesthetized using isoflurane. The rats are conscious during sample collection and the blood is taken from the sub-lingual vein. Blood samples are collected from each rat over a period of up to 24 h. At each time point two aliquots of 50 μL each is added to a vial containing 150 μL of sterile water. The samples are mixed immediately and stored at −18° C. until preparation for bioanalysis is commenced. All formulations are prepared on the same day that dosing takes place. The body weight of the rat is recorded before dosing. The weight of the syringe is recorded before and after administration to allow calculation of the actual amount of test sample delivered. The actual doses are used during the evaluation of the data.\n(§10) Samples and standards are injected by a HTC PAL from CTC analytics into an LC system from Shimadzu consisting of a high-pressure gradient system of two LC-10 AD pumps controlled by a SCL-10A controller from Shimadzu. The samples are separated using reverse-phase chromatography with gradient elution at a flow rate of 0.8 mL/min. Mobile phases are A:94.9/5/0.1 water/acetonitrile/formic acid and B:5/94.9/0.1 water/acetonitrile/formic acid. Gradient starts at 0% B and increases linearly to 100% B in 4 minutes, 100% B is kept for 0.5 minutes and then the system returns to 0% B in 0.1 minutes. The system is equilibrated for 1.4 minutes until the total run time of 6 minutes. The eluent is analysed by a Quattro Ultima from Micromass equipped with an electrospray ion source. Data are collected, and calibrations are calculated by MassLynx 4.0 software. […] The eluent is ionized by negative ion electrospray.\n(§11) The diluted blood sample (50 μL blood, 150 μL water) is thawed and mixed with 400 μL of acetonitrile, to precipitate the protein. The sample is centrifuged at 5000 g for 5 minutes and 100 μL of the supernatant is transferred to a 300 μL glass vial and 100 μL of water is added to reduce the acetonitrile concentration.\n(§12) The concentration of the standard curve is in the range from 5 nM to 15625 nM. Samples with analyte concentrations above the upper limit of quantification are diluted with matrix to reach within the assay range. A non-compartmental analysis (NCA) is performed using the Phoenix WinNonLin analysis tool."}, "[2]": {"details": "rodents; cited from earlier work"}, "[3]": {"details": "adults; cited from earlier work"}, "[4]": {"details": "cited from earlier work"}, "[5]": {"system": "neutrophils", "assay": "Induction of neutrophil apoptosis (in vitro/ex vivo model of arthritis)", "format": "cell-based, rat", "text": "(§1) Apoptosis, in contrast to necrosis, is the demise of a cell through a series of controlled sequential events, resulting in an increase of anti-inflammatory mediators instead of invoking an inflammatory response, because the contents of the cell are removed by phagocytosis and not released to the direct environment. Apoptosis involves the activation of caspases, including caspase 3. Aberration in expression and/or function of the regulators of cell death through apoptosis is thought to result in pathological conditions, including autoimmune diseases and cancer. Although apoptotic cells are uncommonly observed in vivo in RA tissues, in vitro inflammatory cells from RA tissues, like synoviocytes, T-cells and macrophages, are highly susceptible to apoptosis induced through the FAS-TNF-receptor pathway. The absence of apoptotic cells in vivo may be explained by the high levels of nitric oxide in RA tissues, which inhibits caspase 3 and thus cell apoptosis.\n(§2) Novobiocin is a topoisomerase II inhibitor and at therapeutically relevant concentration levels, is expected to counteract CPPD-triggered prolonged survival of neutrophils. Such a pharmacodynamic effect of Novobiocin may be quantified either through activity (levels) of caspase 3, an apoptotic cleavage enzyme, or cytoplasmic histone-associated-DNA fragmentation assessment, using commercially available kits.\n(§3) In the latter model, the effect on neutrophil apoptosis can be either studied directly, or indirectly, exposing the cells in vitro to a challenge that prolongs their survival (e.g. CPPD crystals).\n(§4) CPPD (Ca2P2O7.2H2O; triclinic form) crystals can be obtained using well described methods (Burt H M et al. 1989; Gras P. et al. 2013). Plasma protein coating of the crystals is achieved through incubation of the crystals in 50% plasma (Tudan C et al. 2003). The CPPD crystals are used in experiments with neutrophils from healthy control individuals/animals to mimic arthritic disease.\n(§5) Neutrophils are separated from fresh human (healthy control/patient) or rat (healthy control; disease model) blood using standard methods and suspended in buffer at a concentration of 1×10^6 cells/ml. The cells are incubated at 37° C. with occasional tumbling.\n(§6) Stock solutions of TNFalpha, Methotrexate and Novobiocin are prepared in DMSO, keeping the DMSO concentrations in the cell suspensions below 0.1% during the experiment. The apoptosis rate following the administration of vehicle without active agent (negative control) represents the baseline rate of apoptosis (no effect level), while the apoptosis rate following the administration of TNFalpha (positive control) represents the maximum rate of apoptosis (100% effect level)."}, "[6]": {"system": "MMP3 (stromelysin1)", "assay": "IL-1 induced mRNA upregulation of MMP3 in primary chondrocyte culture", "format": "cell-based", "details": "calf chondrocytes, IL-1 20 ng/mL; concentrations <100 uM", "experimental": "(§7) Primary chondrocyte culture was freshly isolated from calf cartilage. The cells were plated (at 2.5×10^6 per mL) in 100×20 mm culture dishes and incubated in Ham's F12 medium containing 5% fetal bovine serum (FBS) overnight at 37° C. The cells were starved with serum-free medium overnight. The cells were pretreated with MTX, NOV or a combination of MTX with 1, 2, 10 or 20 eq of NOV for 6 hours. Then IL-1 (20 ng/mL) was added to each plate and the plates were incubated for an additional 18 h.\n(§8) Total RNA was isolated by the acidified guanidine isothiocyanate method and subjected to electrophoresis on a denatured gel. Denatured RNA samples were analyzed by gel electrophoresis in a 1% denaturing gel, transferred to a nylon membrane and hybridized respectively with the ^32P-cDNA probes for MMP1, MMP3 and proteoglycan and analyzed."}, "[7]": {"system": "neutrophils", "assay": "Induction of neutrophil apoptosis (in vitro/ex vivo model of arthritis)", "format": "cell-based, human", "text": "as §1, §2, §3, §4, §5, §6"}, "[8]": {"assay": "Pharmacokinetics in rats after oral (gavage) or parenteral administration", "procedure": "as §9, §10, §11, §12"}, "[9]": {"biological_target": "T1, plasma albumin (Homo sapiens, UniProt P02768)", "T1 construct": "host or cells: human plasma", "T1 sequence (P02768 25-609)": "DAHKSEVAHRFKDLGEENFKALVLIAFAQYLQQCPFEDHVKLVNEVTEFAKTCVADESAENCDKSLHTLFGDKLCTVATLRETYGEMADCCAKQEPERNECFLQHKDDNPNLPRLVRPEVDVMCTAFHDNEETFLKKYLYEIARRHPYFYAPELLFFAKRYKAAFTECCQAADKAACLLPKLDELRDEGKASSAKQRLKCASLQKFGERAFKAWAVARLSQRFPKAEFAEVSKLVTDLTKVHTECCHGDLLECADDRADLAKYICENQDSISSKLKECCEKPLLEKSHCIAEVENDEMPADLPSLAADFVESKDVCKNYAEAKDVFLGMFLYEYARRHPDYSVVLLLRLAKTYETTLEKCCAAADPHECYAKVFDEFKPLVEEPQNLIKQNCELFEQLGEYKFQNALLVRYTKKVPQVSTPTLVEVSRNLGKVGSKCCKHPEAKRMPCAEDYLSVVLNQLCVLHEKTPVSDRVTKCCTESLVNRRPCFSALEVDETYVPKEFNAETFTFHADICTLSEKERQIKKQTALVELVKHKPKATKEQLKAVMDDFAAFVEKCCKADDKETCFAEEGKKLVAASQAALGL", "details": "in men; cited from earlier work"}, "[10]": {"system": "pristane-induced arthritis", "assay": "Pristane-induced arthritis (PIA) rat model", "format": "in vivo", "experimental": "The animals are acclimatized for approximately one week before initiation of experiment. All rats are weighed day 0, the day of disease induction, for determination of mean weight of the rats included in the experiment. Arthritis is induced by subcutaneous (s.c.) administration of 200 μl pristane on Day 0. The rats are anesthetized by inhaling a mixture of Isoba vet (3.5%) and oxygen. The root of the tail is cleaned with 70% ethanol and the oil is injected approximately 0.5 cm from the root of the tail. A slight pressure is put on the injection site for 5 seconds after injection to prevent leakage of the oil. Test compounds are administered either i.v. or p.o. (by gavage). Disease is evaluated three times per week from disease onset using a macroscopic scoring system of the four limbs ranging from 0 to 15 (1 point for each swollen or red toe, 1 point for a swollen or red mid foot digit or knuckle, 5 points for a swollen ankle) resulting in a maximum total score of 60 for each rat. The disease scoring is done in a double-blind fashion, i.e. the scorer is unaware of the treatment received by the animal. […]"}, "[11]": {"system": "MMP1 (collagenase)", "assay": "IL-1 induced mRNA upregulation of MMP1 in primary chondrocyte culture", "format": "cell-based, calf", "details": "concentrations <100 uM", "experimental": "as §7, §8"}, "[12]": {"assay": "Pharmacokinetic cross-over study in healthy volunteers (oral / subcutaneous)", "format": "in vivo, human", "details": "for absorption: after oral and subcutaneous administration", "experimental": "Administrations are separated by a wash-out period of 7-14 days. […] Plasma samples are stored at −20° C. until analysis. The primary objective of the study is to evaluate the relative bio-availability of methotrexate following its co-administration with novobiocin. Secondary objectives of the study include the overall tolerability and safety of the co-administration of a therapeutic dose of methotrexate with a non-therapeutic dose of novobiocin for both administration routes overall and in comparison, to administration of methotrexate alone."}, "[13]": {"system": "MMP3", "details": "cited from earlier work"}, "[14]": {"system": "MMP1", "details": "cited from earlier work; for IL-1 induced increase in MMP1 expression: Nose M. et al. (1997)"}, "[15]": {"system": "neutrophils", "details": "4 months after reaching a therapeutic dose of more than 20 mg/week; cited from earlier work"}, "[16]": {"details": "therapeutically effective treatment dose level; cited from earlier work"}, "[17]": {"details": "cited from earlier work", "remark": "listed apart in the source"}, "[18]": {"system": "RA patients", "details": "15 mg/wk, cited from earlier work"}, "[19]": {"details": "neutrophils from healthy rat, concentrations <60 uM"}, "[20]": {"details": "neutrophils from healthy subjects, concentrations <60 uM"}, "[21]": {"details": "male, Wistar (Hannover), rat, whole blood, ip, 5.5 mg/kg"}, "[22]": {"details": "male, Wistar (Hannover), rat, whole blood, po, 55 mg/kg"}, "[23]": {"details": "at 1×10^−7 M, Jackson J K et al. (2008)"}, "[24]": {"details": "male, Wistar (Hannover), rat, whole blood, po, 2 mg/kg"}}, "note": "Read-outs that look alike come from different tables or passages of the source."}
{"compound": "CO[C@@H]1[C@@H](OC(N)=O)[C@@H](O)[C@H](Oc2ccc3c(O)c(NC(=O)c4ccc(O)c(CC=C(C)C)c4)c(=O)oc3c2C)OC1(C)C", "note": "[novobiocin, 4-hydroxy-3-[4-hydroxy-3-(3-mehtylbut-2-enyl)benzamido]-8-methylcoumarin-7-yl 3-O-carbamoyl-5,5-di-C-methyl-alpha-L-lyxofuranoside]", "values": [{"measurement": "linearity of pharmacokinetics", "setting": "[1]", "result": "linear"}, {"measurement": "oral availability", "setting": "[2]", "result": "about 30%"}, {"measurement": "maximum tolerated dose (MTD)", "setting": "[3]", "result": 4, "unit": "g/day"}, {"measurement": "dose excreted unaltered in the urine", "setting": "[4]; Wright W. W. et al., 1956", "result": "About 3%"}, {"measurement": "oral dose excreted in the faeces", "setting": "[4]; hepatic/biliary excretion", "result": "about 30%"}, {"measurement": "pharmacodynamic effects on neutrophil apoptosis", "setting": "[5]; neutrophils from disease model animals (PIA rat), concentrations <60 uM", "result": "No pharmacodynamic effects"}, {"measurement": "effect of NOV on CPPD-induced prolonged survival", "setting": "[5]; neutrophils from healthy controls (rat), control = base line, TNFalpha is 100% effect, concentrations <50 uM", "result": "No pharmacodynamic effects"}, {"measurement": "pharmacodynamic effects on CPPD-induced prolonged survival", "setting": "[5]; [19]", "result": "No pharmacodynamic effects"}, {"measurement": "pharmacodynamic effects on neutrophil apoptosis", "setting": "[5]; [19]", "result": "No pharmacodynamic effects"}, {"measurement": "pharmacodynamic effects on the IL-1 induced mRNA upregulation of MMP3", "setting": "[6]", "result": "No pharmacodynamic effects"}, {"measurement": "effect of NOV on CPPD-induced prolonged survival", "setting": "[7]; neutrophils from healthy controls (human), control = base line, TNFalpha is 100% effect, concentrations <50 uM", "result": "No pharmacodynamic effects"}, {"measurement": "pharmacodynamic effects on CPPD-induced prolonged survival", "setting": "[7]; [20]", "result": "No pharmacodynamic effects"}, {"measurement": "pharmacodynamic effects on neutrophil apoptosis", "setting": "[7]; [20]", "result": "No pharmacodynamic effects"}, {"measurement": "pharmacodynamic effects on neutrophil apoptosis", "setting": "[7]; neutrophils from patients with rheumatoid arthritis, concentrations <60 uM", "result": "No pharmacodynamic effects"}, {"measurement": "AUC(0-inf)", "setting": "[8]; [21]", "result": 25.5, "unit": "µg·h/mL"}, {"measurement": "Cmax", "setting": "[8]; [21]", "result": 9600, "unit": "ng/mL"}, {"measurement": "Tmax", "setting": "[8]; [21]", "result": 0.9, "unit": "h"}, {"measurement": "AUC(0-inf)", "setting": "[8]; [22]", "result": 110, "unit": "µg·h/mL"}, {"measurement": "AUC(0-t)", "setting": "[8]; [22]", "result": 110, "unit": "µg·h/mL"}, {"measurement": "Cmax", "setting": "[8]; [22]", "result": 23300, "unit": "ng/mL"}, {"measurement": "Tmax", "setting": "[8]; [22]", "result": 1.8, "unit": "h"}, {"measurement": "Cmax", "setting": "[8]; oral administration (gavage; 55 mg/kg)", "result": 23300, "unit": "ng/mL"}, {"measurement": "bound to plasma albumin", "setting": "[9]", "result": 99.2, "unit": "%"}, {"measurement": "therapeutic effect on the pristane-induced arthritis", "setting": "[10]; daily per oral administration of up to 80 mg/kg from day 11 to 21 (after onset of disease)", "result": "no therapeutic effect"}, {"measurement": "pharmacodynamic effects on the IL-1 induced mRNA upregulation of MMP1", "setting": "[11]; calf chondrocytes, IL-1 20 ng/mL", "result": "No pharmacodynamic effects"}, {"measurement": "additional pharmacodynamic effects on the inhibition of the IL-1 induced mRNA upregulation of MMP1 by MTX", "setting": "[11]; novobiocin added to MTX", "result": "No additional pharmacodynamic effects"}, {"measurement": "absorption", "setting": "[12]; healthy volunteers", "result": "rapidly absorbed"}, {"measurement": "plasma levels versus levels at which any pharmacodynamic effects can be observed in non-clinical models of disease", "setting": "[12]; healthy volunteers", "result": "remain well below"}, {"measurement": "time to maximum plasma concentrations, sub cutaneous route versus oral route", "setting": "[12]; healthy volunteers", "result": "reached faster"}]}
{"compound": "O=C(O)c1cc(/N=N/c2ccc(S(=O)(=O)Nc3ccccn3)cc2)ccc1O", "note": "[Sulfasalazin]", "values": [{"measurement": "IL-1 induced increase in MMP3 expression", "setting": "[13]; Nose M. et al. (1997)", "result": "suppressed"}, {"measurement": "IL-1 induced increase in MMP1 expression", "setting": "[14]", "result": "suppressed"}]}
{"compound": "CC[C@@]1(O)C(=O)OCc2c1cc1n(c2=O)Cc2cc3ccccc3nc2-1", "note": "[Camptothecin]", "values": [{"measurement": "IL-1 induced increase in MMP3 mRNA expression", "setting": "[13]; [23]", "result": "almost completely inhibited"}, {"measurement": "IL-1 induced increase in MMP1 mRNA expression", "setting": "[14]; [23]", "result": "almost completely inhibited"}]}
{"compound": "CN(Cc1cnc2nc(N)nc(N)c2n1)c1ccc(C(=O)N[C@@H](CCC(=O)O)C(=O)O)cc1", "note": "[methotrexate, N-[4-[[(2,4-diamino-6-pteridinyl)methyl]methylamino]benzoyl]-L-glutamic acid]", "values": [{"measurement": "neutrophil apoptosis in RA patients", "setting": "[15]", "result": "restoration of neutrophil apoptosis to healthy control levels"}, {"measurement": "IL-1 induced increase in MMP1 expression", "setting": "[14]", "result": "suppressed"}, {"measurement": "patient population in which treatment needs to be terminated due to intolerability", "setting": "[16]", "result": "about 30%"}, {"measurement": "AUC(0-inf)", "setting": "[8]; [24]", "result": 0.923, "unit": "µM·h"}, {"measurement": "AUC(0-t)", "setting": "[8]; [24]", "result": 0.759, "unit": "µM·h"}, {"measurement": "Cmax", "setting": "[8]; [24]", "result": 277, "unit": "nM"}, {"measurement": "time within which non-polyglutamated methotrexate is excreted in the urine after administration", "setting": "[17]; in vivo", "result": "≤ 12", "unit": "h"}, {"measurement": "systemic bioavailability", "setting": "[17]; man, oral dose", "result": "approximately 73%"}, {"measurement": "bioavailability", "setting": "[17]; subcutaneous (sc) administration", "result": "approx. 95%"}, {"measurement": "treatment success, RA patients", "setting": "[18]; oral application route", "result": 24, "unit": "%"}, {"measurement": "treatment success, RA patients", "setting": "[18]; sc application route", "result": 34, "unit": "%"}, {"measurement": "inflammatory effects of pristane", "setting": "[10]; 0.1 mg/kg every third day from day 7 (i.v.)", "result": "completely ameliorated"}, {"measurement": "maximum concentrations and total plasma concentrations, sub cutaneous versus oral administration", "setting": "[12]; 15 mg methotrexate alone", "result": "higher"}, {"measurement": "absorption", "setting": "[12]; healthy volunteers", "result": "rapidly absorbed"}, {"measurement": "time to maximum plasma concentrations, sub cutaneous route versus oral route", "setting": "[12]; healthy volunteers", "result": "reached faster"}]}
